Test results: patent publication US6617282B2, “Processes for preparing 3-phenyl-2,4(1H, 3H)-pyrimidinediones” (Ishihara Sangyo Kaisha, Ltd., priority 2001, dated 2003)

Columns and labels:
Assay in all cases: PRE emergent soil treatment, weed control
Assay type in all cases: in vivo
Details in all cases: applied to soil, 250 g/ha
[1] = test system: lambsquarters (Chenopodium album)
Source text: (§1) Compound B was applied to soil as a PRE emergent treatment at the rate of 250 g/ha. The broadleaf weed species velvetleaf (Abutilon theophrasti), redroot pigweed (Amaranthus retroflexus) and lambsquarters (Chenopodium album) were all 100% controlled by this treatment.

[2] = test system: redroot pigweed (Amaranthus retroflexus)
Source text: as §1

[3] = test system: velvetleaf (Abutilon theophrasti)
Source text: as §1

Measured: controlled (weed control)

CC(C)=Nn1c(C(F)(F)F)cc(=O)n(-c2cc(Oc3ccccc3[N+](=O)[O-])c(Cl)cc2F)c1=O [Compound B, 3-[4-hloro-2-fluoro-5-(2-nitrophenoxy)phenyl]-1-[(1-methylethylidene)amino]-6-(trifluoromethyl)-2,4(1H,3H)-pyrimidinedione]
100%: all assays above
